Measurements: patent publication US9120815B2, “Solid state forms of macrocyclic kinase inhibitors” (Tragara Pharmaceuticals, Inc., priority 2010, dated 2015)

Legend:
[1] = test system: HEL92.1.7; conditions: HEL92.1.7 cell line; cited from earlier work
[2] = Gravimetric Vapour Sorption (GVS) at 25° C.; format: physicochemical
Procedure: Sorption isotherms were obtained using a SMS DVS Intrinsic moisture sorption analyser, controlled by SMS Analysis Suite software. The sample temperature was maintained at 25° C. by the instrument controls. The humidity was controlled by mixing streams of dry and wet nitrogen, with a total flow rate of 200 ml.min^−1. The relative humidity was measured by a calibrated Rotronic probe (dynamic range of 1.0-100% RH), located near the sample. The weight change, (mass relaxation) of the sample as a function of % RH was constantly monitored by the microbalance (accuracy ±0.005 mg). Typically 5-20 mg of sample was placed in a tared mesh stainless steel basket under ambient conditions. The sample was loaded and unloaded at 40% RH and 25° C. (typical room conditions). A moisture sorption isotherm was performed as outlined below (2 scans giving 1 complete cycle). The standard isotherm was performed at 25° C. at 10% RH intervals over a 0.5-90% RH range. The sample was recovered after completion of the isotherm and re-analysed by XRPD.

[3] = biological target: T1, FLT3 (Homo sapiens, UniProt P36888); conditions: in vitro; cited from earlier work
T1 sequence (P36888 27-993): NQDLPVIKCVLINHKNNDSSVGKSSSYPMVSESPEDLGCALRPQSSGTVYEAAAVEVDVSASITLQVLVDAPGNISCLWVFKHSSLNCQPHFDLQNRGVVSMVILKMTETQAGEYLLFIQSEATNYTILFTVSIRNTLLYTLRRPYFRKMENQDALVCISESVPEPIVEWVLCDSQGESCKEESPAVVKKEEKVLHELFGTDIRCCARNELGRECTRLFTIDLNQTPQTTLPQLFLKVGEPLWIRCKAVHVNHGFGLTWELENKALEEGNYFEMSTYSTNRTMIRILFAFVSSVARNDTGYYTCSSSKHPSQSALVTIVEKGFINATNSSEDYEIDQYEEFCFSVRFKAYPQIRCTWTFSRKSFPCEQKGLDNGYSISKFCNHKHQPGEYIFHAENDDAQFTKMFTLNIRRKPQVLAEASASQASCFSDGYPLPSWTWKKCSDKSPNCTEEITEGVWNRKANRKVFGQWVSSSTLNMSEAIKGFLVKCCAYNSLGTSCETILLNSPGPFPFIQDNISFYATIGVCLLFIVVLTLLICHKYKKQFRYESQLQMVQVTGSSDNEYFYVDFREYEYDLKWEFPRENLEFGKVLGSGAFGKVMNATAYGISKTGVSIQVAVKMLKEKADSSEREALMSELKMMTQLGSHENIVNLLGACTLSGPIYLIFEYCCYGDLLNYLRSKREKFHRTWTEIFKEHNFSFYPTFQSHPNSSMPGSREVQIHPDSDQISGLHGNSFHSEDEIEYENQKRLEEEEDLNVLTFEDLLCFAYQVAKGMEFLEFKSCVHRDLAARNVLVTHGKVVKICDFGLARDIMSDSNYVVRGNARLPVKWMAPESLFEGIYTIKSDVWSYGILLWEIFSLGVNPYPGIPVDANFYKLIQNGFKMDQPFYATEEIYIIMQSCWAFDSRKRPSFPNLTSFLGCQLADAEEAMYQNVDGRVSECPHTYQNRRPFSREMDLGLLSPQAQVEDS

[4] = test system: MV4-11; conditions: MV4-11 cell line; cited from earlier work
[5] = Stability in humidity chamber 40° C./75% R.H. (XRPD, HPLC); format: physicochemical
Procedure: After 2 days, the solids were isolated by filtration under vacuum at RT to be characterised by XRPD analysis. Each new crystalline solid phase detected was characterised by ^1H NMR and TGA-DSC analyses in order to determine if salt formation had occurred and whether the material was a solvate. At this stage, each salt identified was then analysed by HPLC to determine the chemical purity prior to being stored in the humidity chamber (40° C./75% R.H.) to assess its stability.

[6] = test system: HL60; conditions: HL60 cell line; cited from earlier work
[7] = test system: DU145; conditions: DU145 cell line; cited from earlier work
[8] = biological target: JAK2 (Homo sapiens, UniProt O60674); conditions: in vitro; cited from earlier work
[9] = Thermodynamic aqueous solubility; format: physicochemical
Procedure: Aqueous solubility was determined by suspending sufficient compound in water to give a maximum final concentration of 210 mg·ml^−1 of the parent free-form of the compound. The suspension was equilibrated at 25° C. for 24 hours then the pH was measured. The suspension was then filtered through a glass fibre C filter into a 96 well plate. The filtrate was then diluted by a factor of 101. Quantitation was by HPLC with reference to a standard solution of approximately 0.1 mg·ml^−1. in DMSO. Different volumes of the standard, diluted and undiluted sample solutions were injected. The solubility was calculated using the peak areas determined by integration of the peak found at the same retention time as the principal peak in the standard injection.
Analysis was performed on an Agilent HP1 100 series system equipped with a diode array detector and using ChemStation software vB.02.01-SR1.

[10] = test system: Colo205; conditions: Colo205 cell line; cited from earlier work
[11] = Log P determination by potentiometric titration; format: physicochemical
Source text: Data were collected by potentiometric titration on a Sirius GlpKa instrument using three ratios of octanol:ionic-strength adjusted (ISA) water to generate Log P, Log Pion, and Log D values. The data were refined using Refinement Pro software v2.2. Prediction of Log P values was made using ACD v12 software.

[12] = biological target: JAK V617F (Homo sapiens, UniProt O60674, V617F); conditions: in vitro; cited from earlier work
JAK V617F, sequence (O60674 whole entry V617F): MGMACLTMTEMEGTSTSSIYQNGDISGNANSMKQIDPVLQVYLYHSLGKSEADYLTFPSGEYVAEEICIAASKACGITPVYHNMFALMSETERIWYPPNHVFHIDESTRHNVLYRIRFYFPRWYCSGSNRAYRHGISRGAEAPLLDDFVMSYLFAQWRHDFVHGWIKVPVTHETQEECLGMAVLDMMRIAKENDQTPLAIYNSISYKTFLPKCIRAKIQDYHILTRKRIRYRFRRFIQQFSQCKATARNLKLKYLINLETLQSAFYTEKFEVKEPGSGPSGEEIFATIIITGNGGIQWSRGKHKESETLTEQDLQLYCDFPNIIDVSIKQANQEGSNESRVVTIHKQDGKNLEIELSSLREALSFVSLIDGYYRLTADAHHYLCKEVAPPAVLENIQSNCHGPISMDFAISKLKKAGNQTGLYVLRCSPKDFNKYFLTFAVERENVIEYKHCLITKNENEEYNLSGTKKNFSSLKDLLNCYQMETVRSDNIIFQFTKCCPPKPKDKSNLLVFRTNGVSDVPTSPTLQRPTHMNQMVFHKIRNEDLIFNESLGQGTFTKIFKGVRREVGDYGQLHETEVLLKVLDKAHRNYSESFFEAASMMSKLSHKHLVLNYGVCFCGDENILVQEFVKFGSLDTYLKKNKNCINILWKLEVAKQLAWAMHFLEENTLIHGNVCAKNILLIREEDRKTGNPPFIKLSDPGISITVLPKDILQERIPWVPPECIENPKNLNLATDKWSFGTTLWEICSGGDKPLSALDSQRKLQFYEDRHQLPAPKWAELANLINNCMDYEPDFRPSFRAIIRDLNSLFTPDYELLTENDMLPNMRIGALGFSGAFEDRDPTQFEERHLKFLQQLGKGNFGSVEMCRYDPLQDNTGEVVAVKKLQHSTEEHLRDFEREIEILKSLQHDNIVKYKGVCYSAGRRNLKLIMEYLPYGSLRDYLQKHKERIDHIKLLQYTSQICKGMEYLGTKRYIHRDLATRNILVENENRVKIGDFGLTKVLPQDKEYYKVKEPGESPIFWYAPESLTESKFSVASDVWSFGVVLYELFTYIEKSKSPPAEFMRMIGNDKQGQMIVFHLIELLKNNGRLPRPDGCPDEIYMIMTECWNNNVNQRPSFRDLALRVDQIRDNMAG

JAK2, sequence (O60674 whole entry): as the sequence (O60674 whole entry V617F) above, with F617V counted along it

SMILES: CN1C/C=C/CCOc2cccc(c2)-c2ccnc(n2)Nc2cccc(c2)C1 [Compound I, 14-methyl-20-oxa-5,7,14,27-tetraazatetracyclo-[19.3.1.12,6.18,12]heptacosa-1(25),2,4,6,8,10,12(26),16,21,23-decaene]
- GI50 [1]: < 1000 nM
- changes in the XRPD pattern after the GVS experiment [2]: between 0 and 90% relative humidity. No
- hydration phenomenon in GVS [2]: GVS analysis was carried out at 25 °C No
- IC50 [3]: < 1000 nM
- GI50 [4]: < 1000 nM
- XRPD stability (40° C./75% R.H.) ([5]; 6 weeks): No changes were observed in the humidity
- HPLC Purity post stability (40° C./75% R.H.) ([5]; after 6 weeks in the humidity chamber): purity of Compound I was measured at 97.0% area
- GI50 [6]: < 1000 nM
- GI50 [7]: < 1000 nM
- IC50 [8]: < 1000 nM
- solubility at 24 h ([9]; 25 °C, thermodynamic from solid, water): < 1 µg/mL
- final pH ([9]; pH of the aqueous suspension after equilibration): 8.9
- aqueous solubility ([9]; water, 25° C., 24 hours): < 1 µg/mL
- GI50 [10]: < 1000 nM
- logD ([11]; octanol/ionic-strength adjusted (ISA) water, pH 7.4, read-out: Measured LogD7.4): 3.34
- logP ([11]; octanol/ionic-strength adjusted (ISA) water, octanol:ISA water, read-out: Measured LogP): 4.72
- Measured LogPion ([11]; octanol:ISA water): 1.14
- IC50 [12]: < 1000 nM
